# Patent publication US20060223837A1 (priority 2005, published 2006)
# Biological target: T1, human VR1 (Homo sapiens, UniProt Q8NER1)
# T1 construct: expressed in transfected cells; host or cells: HEK293
# Test: Human VR1 [3H]RTX binding assay
# Conditions: [3H]RTX binding, HEK293 membranes
# Description: Compounds of the present invention were tested for their ability to inhibit the binding of tritiated resiniferatoxin ([^3H] RTX) to human VR1 receptors in a [^3H] RTX binding assay, as previously described (Zhang, Sui-Po. Improved ligand binding assays for vanilloid receptors. PCT Int. Appl. (2002), WO 0233411 A1 20020425 AN 2002:315209; Grant, Elfrida R., Dubin, Adrienne E., Zhang, Sui-Po, Zivin, Robert A., Zhong, Zhong Simultaneous intracellular calcium and sodium flux imaging in human VR1-transfected human embryonic kidney cells: a method to resolve ionic dependence of VR1-mediated cell death. J. Pharmacol. Exp. ther., 2002, 300(1), 9-17.) HEK293 cells were transfected with human VR1 and washed with Hank's balanced Salt Solution, dissociated with cell dissociation buffer (Sigma), and then centrifuged at 1000× g for 5 min. Cell pellets were homogenized in cold 20 mM HEPES buffer (pH 7.4), containing 5.8 mM NaCl, 320 mM sucrose, 2 mM MgCl2, 0.75 CaCl2 and 5 mM KCl and centrifuged at 1000× g for 15 min. The resultant supernate was then centrifuged at 40000× g for 15 min. The pelleted membranes were stored in a freezer at −80 C.
# Approximately 120 μg protein/ml from membranes were incubated with indicated concentrations of [^3H]RTX in 0.5 ml of the HEPES buffer (pH 7.4) containing 0.25 mg/mL fatty acid-free bovine serum albumin at 37 C for 60 min. After cooling the reaction mixture to 4 C, 0.1 mg (x-acid glycoprotein was added to each sample, which was incubated at 4 C for 15 min and then centrifuged at 18500× g for 15 min. The tip of the microcentrifuge tube containing the pellet was cut off. Bound radioactivity was quantified by scintillation counting. Non-specific binding was assessed in the presence of 200 nM unlabeled resiniferatoxin.
# Data were calculated according to the equation: % inhibtion=(total binding−binding)*100/(total binding−non specific binding).
# Ki values were calculated based on an average of duplicate measurements using a GraphPad Prism program.
# T1 sequence (Q8NER1 whole entry): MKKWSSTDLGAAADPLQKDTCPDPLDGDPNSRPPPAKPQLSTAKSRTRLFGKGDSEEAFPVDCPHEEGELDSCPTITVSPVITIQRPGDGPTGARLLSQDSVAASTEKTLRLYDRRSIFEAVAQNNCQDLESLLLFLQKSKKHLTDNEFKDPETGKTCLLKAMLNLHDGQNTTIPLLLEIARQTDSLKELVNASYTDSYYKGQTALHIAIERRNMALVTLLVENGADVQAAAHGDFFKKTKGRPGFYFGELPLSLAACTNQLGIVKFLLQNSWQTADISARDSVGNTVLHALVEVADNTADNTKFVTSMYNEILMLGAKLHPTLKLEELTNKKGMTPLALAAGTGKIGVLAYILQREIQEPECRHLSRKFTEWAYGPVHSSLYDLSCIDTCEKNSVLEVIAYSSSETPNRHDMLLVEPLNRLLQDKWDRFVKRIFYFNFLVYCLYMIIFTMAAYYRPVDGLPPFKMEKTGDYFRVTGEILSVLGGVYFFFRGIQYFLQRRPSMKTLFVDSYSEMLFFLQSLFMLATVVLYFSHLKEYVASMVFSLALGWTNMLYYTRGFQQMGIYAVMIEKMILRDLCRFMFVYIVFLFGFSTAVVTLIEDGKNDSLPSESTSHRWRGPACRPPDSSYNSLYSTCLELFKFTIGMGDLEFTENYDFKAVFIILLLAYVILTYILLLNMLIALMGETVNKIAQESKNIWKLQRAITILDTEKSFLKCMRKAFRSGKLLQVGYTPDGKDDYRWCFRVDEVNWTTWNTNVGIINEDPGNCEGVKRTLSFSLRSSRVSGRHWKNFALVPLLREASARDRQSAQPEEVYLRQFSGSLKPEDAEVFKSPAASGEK
row,SMILES,Ki
1,CC(C)(C)c1ccc(CCC(=O)Nc2ccc(-c3cccc(C#N)c3)cc2)cc1 [Cpd 25],103 nM
2,COc1cccc(-c2ccc(NC(=O)CCc3ccc(C(C)(C)C)cc3)cc2)c1 [Cpd 27],846 nM
3,CC(C)(C)c1ccc(/C=C/C(=O)Nc2cccc(-c3cccc(C(N)=O)c3)c2)cc1 [Cpd 33],171 nM

# Next, values leading:
row,Ki,SMILES
1,11.3 nM,CC(C)(C)c1ccc(CCC(=O)Nc2ccc(-c3ccccn3)cc2)cc1 [Cpd 110]
2,216 nM,CC(C)(C)c1ccc(CCC(=O)Nc2ccc(-c3ncccn3)cc2)cc1 [Cpd 112]
3,335 nM,CC(C)(C)c1ccc(CCC(=O)Nc2ccc(-c3cccc4[nH]ccc34)cc2)cc1 [Cpd 122]

# Same assay, conditions: inhibition of [3H]RTX binding at 1 μM
row,SMILES,h Binding % I (1 μM)
1,NC(=O)c1cccc(-c2ccc(NC(=O)/C=C/c3ccc(C(F)(F)F)cc3)cc2)c1 [Cpd 47],1%
2,Cc1cc(-c2cccc(C(N)=O)c2)ccc1NC(=O)CCc1ccc(C(C)(C)C)cc1 [Cpd 50],11%
3,Cc1cc(NC(=O)CCc2ccc(C(C)(C)C)cc2)ccc1-c1cccc(C(N)=O)c1 [Cpd 51],19%
4,CC(C)(C)c1ccc(CCC(=O)Nc2ccc(-c3cccc(C(N)=O)c3)cc2F)cc1 [Cpd 52],1%
5,CC(C)(C)c1ccc(CCC(=O)Nc2ccc(-c3cccc(C(N)=O)c3)c(F)c2)cc1 [Cpd 53],27%
6,CC(C)(C)c1ccc(CCC(=O)Nc2ccc(-c3cccc(C(N)=O)c3)cc2)s1 [Cpd 63],1%
7,CC(=O)Nc1cccc(-c2ccc(NC(=O)CCc3ccc(C(C)(C)C)s3)cc2)c1 [Cpd 64],33%
8,CC(C)(C)c1ccc(CCC(=O)Nc2ccc(-c3cccc(C(N)=O)c3)cc2C(=O)O)cc1 [Cpd 66],1%
9,CNC(=O)c1cccc(-c2ccc(NC(=O)CCc3ccc(C(C)(C)C)cc3)c(C(=O)O)c2)c1 [Cpd 67],1%
10,CC(C)(C)c1ccc(CCC(=O)Nc2ccc(-c3cccc(O)c3)cc2C(=O)O)cc1 [Cpd 68],1%
11,CC(C)(C)c1ccc(CCC(=O)Nc2ccc(-c3ccc4cc[nH]c4c3)cc2)cc1 [Cpd 123],39%
12,CC(C)(C)c1ccc(CCC(=O)Nc2ccc(-c3cccc(C(N)=O)c3)cn2)cc1 [Cpd 124],1%
13,CC(=O)Nc1cccc(-c2ccc(NC(=O)CCc3ccc(C(C)(C)C)cc3)nc2)c1 [Cpd 125],1%
14,CC(C)(C)c1ccc(CCC(=O)Nc2cccc(-c3cccc(O)c3)n2)cc1 [Cpd 126],9%
15,CC(C)(C)c1ccc(CCC(=O)Nc2ccc(-c3cccc(C(N)=O)c3)nc2)cc1 [Cpd 127],16%
16,CC(C)(C)c1ccc(CCC(=O)Nc2ncc(-c3cccc(C(N)=O)c3)cn2)cc1 [Cpd 130],1%
17,CC(C)(C)c1ccc(CCC(=O)Nc2cnc(-c3cccc(C(N)=O)c3)cn2)cc1 [Cpd 131],1%
18,O=C(CCc1ccc(C(F)(F)F)cc1)Nc1ccc(-c2ccccc2O)nc1 [Cpd 146],8%

# Next, values leading:
row,h Binding % I (1 μM),SMILES
1,40%,CC(C)(C)c1ccc(CCC(=O)Nc2ccc(-c3cccc(CO)c3)cc2)cc1 [Cpd 23]
2,5%,CC(=O)Nc1cccc(-c2ccc(NC(=O)CCc3ccc(C(C)(C)C)cc3)c(C)c2)c1 [Cpd 54]
3,16%,CC(=O)Nc1cccc(-c2ccc(NC(=O)CCc3ccc(C(C)(C)C)cc3)c(F)c2)c1 [Cpd 56]
4,1%,CC(C)(C)c1ccc(CCC(=O)Nc2cccc(-c3cccnc3)c2)cc1 [Cpd 106]
5,1%,CC(C)(C)c1ccc(CCC(=O)Nc2cccc(-c3cncnc3)c2)cc1 [Cpd 117]
6,1%,COc1ccc(-c2cccc(NC(=O)CCc3ccc(C(C)(C)C)cc3)c2)cn1 [Cpd 119]
7,36%,COc1ccc(-c2ccc(NC(=O)CCc3ccc(C(C)(C)C)cc3)cc2)cn1 [Cpd 121]
8,25%,CC(C)(C)c1ccc(CCC(=O)Nc2ccc(-c3cccc(CO)c3)nc2)cc1 [Cpd 134]
9,1%,CC(C)(C)c1ccc(CCC(=O)Nc2ccc(-c3ccncc3)cc2C(=O)O)cc1 [Cpd 139]
10,1%,CC(C)(C)c1ccc(CCC(=O)Nc2ccc(-c3ccncc3)cc2CO)cc1 [Cpd 140]
11,1%,CC(C)(C)c1ccc(CCC(=O)Nc2ccc(-c3ccncc3)c(C(=O)O)c2)cc1 [Cpd 141]
12,15%,CC(=O)Nc1cccc(-c2ccc(NC(=O)CCc3ccc(C(C)(C)C)cc3)c3ccncc23)c1 [Cpd 154]
13,89%,CC(C)(C)c1ccc(CCC(=O)Nc2ccc(-c3cccc(O)c3)c3cnccc23)cc1 [Cpd 155]
14,33%,CC(C)(C)c1ccc(CCC(=O)Nc2ccc(-c3ccncc3)c3cnccc23)cc1 [Cpd 156]
15,77%,O=C(CCc1ccc(C(F)(F)F)cc1)Nc1ccc(-c2cccc(O)c2)c2cnccc12 [Cpd 158]
16,1%,O=C(CCc1ccc(C(F)(F)F)cc1)Nc1ccc(-c2ccncc2)c2cnccc12 [Cpd 159]

# Same assay, conditions: inhibition of [3H]RTX binding at 1 μM; read-out: h Binding % I (1 μM)
row,SMILES,inhibition at 1 µM
1,CC(C)(C)c1ccc(CCC(=O)Nc2ccc(-c3cccc(C#N)c3)cc2)cc1 [Cpd 25],94%
2,COc1cccc(-c2ccc(NC(=O)CCc3ccc(C(C)(C)C)cc3)cc2)c1 [Cpd 27],53%
3,CC(C)(C)c1ccc(/C=C/C(=O)Nc2cccc(-c3cccc(C(N)=O)c3)c2)cc1 [Cpd 33],82%

# More lines, now with the values ahead:
row,inhibition at 1 µM,SMILES
1,97%,CC(C)(C)c1ccc(CCC(=O)Nc2ccc(-c3ccccn3)cc2)cc1 [Cpd 110]
2,68%,CC(C)(C)c1ccc(CCC(=O)Nc2ccc(-c3ncccn3)cc2)cc1 [Cpd 112]
3,64%,CC(C)(C)c1ccc(CCC(=O)Nc2ccc(-c3cccc4[nH]ccc34)cc2)cc1 [Cpd 122]

# Biological target: T1, human VR1
# Test: Human VR1 functional assay (FLIPR intracellular Ca2+)
# Assay type: cell-based
# Conditions: inhibition of capsaicin response, 1 μM
# Description: The functional activity of the test compounds was determined by measuring changes in intracellular calcium concentration using a Ca^2+-sensitive fluorescent dye and FLIPR™ technology. Increases in Ca^2+ concentration were readily detected upon challenge with capsaicin. HEK293 Cells expressing human VR1 were grown on poly-D-lysine coated 384 well black-walled plates (BD 354663) and 1 day later loaded with Calcium 3 Dye for 35 min at 37 C, 5% CO2 and then for 25 min at room temperature, and subsequently tested for agonist-induced increases in intracellular Ca^2+ levels using FLIPR™ technology. Cells were challenged with test compounds (at varying concentrations, which are indicated in parentheses in the heading of the table below) and intracellular Ca^2+ was measured for 5 min prior to the addition of capsaicin to all wells to achieve a final concentration of eliciting an approximate 80% maximal response ([…]). EC50 or IC50 values were determined from dose-response studies. Curves were generated using the average of quadruplicate wells for each data point.
row,SMILES,h % I (1 μM)
1,CC(C)(C)c1ccc(CCC(=O)Nc2ccc(-n3ccnc3)c(C(F)(F)F)c2)cc1 [Cpd 264],24%
2,Cc1nccn1-c1ccc(NC(=O)CCc2ccc(C(F)(F)F)cc2)cc1C(F)(F)F [Cpd 267],20%
3,CC(C)c1nccn1-c1ccc(NC(=O)CCc2ccc(C(F)(F)F)cc2)cc1C(F)(F)F [Cpd 268],15%
4,O=C(CCc1ccc(C(F)(F)F)cc1)Nc1ccc(-n2ccc3ccccc32)c(C(F)(F)F)c1 [Cpd 269],21%
5,COC(=O)c1cn(-c2ccc(NC(=O)CCc3ccc(C(F)(F)F)cc3)cc2C(F)(F)F)cn1 [Cpd 271],26%
6,Cc1cc(NC(=O)CCc2ccc([S+]([O-])C(F)(F)F)cc2)cnc1-n1cnc(Cl)c1Cl (centres unmarked) [Cpd 273],36%
7,Cc1cc(NC(=O)/C=C/c2ccc([S+]([O-])C(F)(F)F)cc2)cnc1-n1cnc(Cl)c1Cl (centres unmarked) [Cpd 274],18%
8,Cc1cc(NC(=O)/C=C/c2ccc(SC(F)(F)F)cc2)cnc1-n1cnc(Cl)c1Cl [Cpd 275],16%
9,Cc1cc(NC(=O)/C=C/c2ccc(C(F)(F)F)cn2)cnc1-n1cnc(Cl)c1Cl [Cpd 276],19%
10,Cc1cc(NC(=O)CCc2ccc(C(F)(F)F)cn2)cnc1-n1cnc(Cl)c1Cl [Cpd 278],36%
11,O=C(CCc1ccc(F)cc1)Nc1ccc(-n2ccnc2)c(C(F)(F)F)c1 [Cpd 279],30%
12,Cc1cc(NC(=O)CCc2ccc(F)cc2)cnc1-n1cnc(Cl)c1Cl [Cpd 280],16%

# Same assay, conditions: inhibition of capsaicin response, 1 μM; read-out: h % I (1 μM)
row,SMILES,inhibition at 1 µM
1,"O=C(CCc1ccc(C(F)(F)F)cc1)Nc1ccc(-c2noc(C(F)(F)F)n2)c(C(F)(F)F)c1 [Cpd 265, 3-(4-Trifluoromethyl-phenyl)-N-[3-trifluoromethyl-4-(5-trifluoromethyl-[1,2,4]oxadiazol-3-yl)-phenyl]-propionamide]",18%
2,"Cc1nc(-c2ccc(NC(=O)CCc3ccc(C(F)(F)F)cc3)cc2C(F)(F)F)no1 [Cpd 266, N-[4-(5-Methyl-[1,2,4]oxadiazol-3-yl)-3-trifluoromethyl-phenyl]-3-(4-trifluoromethyl-phenyl)-propionamide]",47%
3,"O=C(CCc1ccc(C(F)(F)F)cc1)Nc1ccc(-n2cnc3c2CCCC3)c(C(F)(F)F)c1 [Cpd 270, N-[4-(4,5,6,7-Tetrahydro-benzoimidazol-1-yl)-3-trifluoromethyl-phenyl]-3-(4-trifluoromethyl-phenyl)-propionamide]",47%

# Same assay, conditions: inhibition of capsaicin response, 5 μM
row,SMILES,h % I (5 μM)
1,CC(C)(C)c1ccc(CCC(=O)Nc2ccc(-n3ccnc3)c(C(F)(F)F)c2)cc1 [Cpd 264],48%

# Same assay, conditions: inhibition of capsaicin response, 5 μM; read-out: h % I (5 μM)
row,SMILES,inhibition at 5 µM
1,COc1cccc(-c2ncc(NC(=O)CCc3ccc(C(C)(C)C)cc3)cc2C)c1 [Cpd 259],90%
2,"O=C(CCc1ccc(C(F)(F)F)cc1)Nc1ccc(-c2noc(C(F)(F)F)n2)c(C(F)(F)F)c1 [Cpd 265, 3-(4-Trifluoromethyl-phenyl)-N-[3-trifluoromethyl-4-(5-trifluoromethyl-[1,2,4]oxadiazol-3-yl)-phenyl]-propionamide]",63%
3,"Cc1nc(-c2ccc(NC(=O)CCc3ccc(C(F)(F)F)cc3)cc2C(F)(F)F)no1 [Cpd 266, N-[4-(5-Methyl-[1,2,4]oxadiazol-3-yl)-3-trifluoromethyl-phenyl]-3-(4-trifluoromethyl-phenyl)-propionamide]",64%
